Assay results from patent US20050004007A1, “Promotion of adoptosis in cancer cells by co-administration of cyclin dependent kinase inhibitiors and cellular differentiation agents” (priority 2000, published 2005).

Tests used:
[1] = tested on: U937 myelomonocytic human leukemia cells; assay: percent cell death; assay type: cell-based; conditions: 1 μM SAHA, 100 nM FP, 24 hours after administration
[2] = tested on: U937 human leukemia cells; assay: morphological assessment of apoptosis (Wright and Giemsa-stained cytospin); assay type: cell-based
Source text: (§1) Cell culture. The myelomonocytic leukemia cell line U937 was derived from a patient with histiocytic lymphoma and was obtained from American Type Culture Collection. The HL-60 cell line was derived from a patient with acute promyelocytic leukemia as previously described [Grant et al. 1992]. U937 and HL-60 cells were maintained in logarithmic growth phase by culturing in suspension in phenol red-free RPMI-1640 (Life Technologies, Inc., Grand Island, N.Y.) and 10% (v/v) fetal calf serum (Hyclone, Logan, Utah), in a humidified atmosphere (95% air/5% CO2) at 37° C. To obtain antisense-expressing cell lines, U937 cells were transfected by electroporation with a pREP4 vector (Invitrogen; Carlsbad, Calif.) or the pREP4 vector containing the p21^WAF1/CIP1 coding region in an antisense orientation as previously described [Wang et al. 1999]. […]
(§2) Morphological assessment of apoptosis. U937 cells were evaluated for apoptosis by morphological assessment of Wright and Giemsa-stained cytospin preparations. At designated times, cells were transferred to slides by cytocentrifugation, fixed, stained, and evaluated under light microscopy for treatment-induced apoptosis. […] Five or more randomly selected fields, encompassing a total≧500 cells/slide, were evaluated to determine the percentage of apoptotic cells for each treatment condition.

cdk2 and cdk4 = assay: Western analysis of cdk2/4-phosphorylated pRb in U937 cells; assay type: cell-based, human; conditions: FP 100 nM, SB 1 mM
Procedure: Alternatively, whole cell-pellets were washed twice in PBS, resuspended in PBS, and lysed by the addition of I volume of loading buffer. Lysates were boiled for 10 min, centrifuged at 12,800 g for 5 min and quantified using Coomassie protein assay reagent (Pierce, Rockfold, Ill.). 25 μg of total proteins per point were separated by SDS-PAGE and electro-blotted to nitrocellulose. The blots were blocked in 5% non-fat milk in PBS-T and probed for 1 h with the appropriate dilution of primary antibody. Blots were washed 3×10 min in PBS-T and then incubated with a 1:2000 dilution of peroxidase-conjugated secondary antibody for 1 h at room temperature. Blots were again washed 3×10 min in PBS-T and then developed by enhanced chemiluminesence. Where indicated, blots were stripped and re-probed with antibodies directed against actin. […]

[3] = tested on: HL-60 human promyelocytic leukemia cells; assay: morphological assessment of apoptosis; assay type: cell-based; conditions: 3, 5, or 10 μM ATRA, 80 nM FP
Source text: as §1, §2

[4] = tested on: HL60 human leukemia cells; assay: loss of mitochondrial membrane potential (DiOC6 uptake); assay type: cell-based; conditions: 3, 5, or 10 μM ATRA and 80 nM FP
Procedure: Assessment of mitochondrial membrane potential. At designated times, 1 ml aliquots of cells (2×10^5) were harvested and incubated with 40 nM DiOC6 for 15 minutes at 25° C. as previously described [Zamzami et al 1995]or at 37° C. Samples were analyzed using a Becton Dickinson FACScan flow cytometer (excitation λ=488 nm; emission λ=525 nm). […] Data acquisition and analysis was performed using […] Software (Becton Dickinson, Mansfield, Mass.).

histones H3 and H4 = assay: acetylated histone Western (HDAC assay) in U937 cells; assay type: cell-based, human; conditions: 1 mM SB, 100 nM FP
Procedure: Histone Deacetylase (HDAC) Assay. Acid extraction of proteins from treated cells and detection of acetylated histones H3 and H4 by Western blot analysis was performed per the manufacturer's instructions (Upstate Biotechnology). 10 μg of extract was loaded per lane and separated on pre-cast 4-20% Biorad Gradient Gels.

SMILES | cell death [1] | percentage of apoptotic cells ([2]; FP concentrations ≦100 nM, regardless of treatment interval (6-24 h)) [%] | induction of apoptosis ([2]; FP concentrations ≧200 nM, chronic exposures (12 or 24 h)) | cdk2/4 activities (cdk2/4-phosphorylated pRb) (cdk2 and cdk4) | % apoptosis [3] | loss of mitochondrial membrane potential (Δψm) [4] | acetylation of histones H3 and H4 (histones H3 and H4)
CN1CC[C@H](c2c(O)cc(O)c3c(=O)cc(-c4ccccc4Cl)oc23)[C@H](O)C1 [FP, Flavopiridol] | modest level of cell death | ≤ 10 | susceptible to apoptosis | moderate inhibition | minimal effect | no effect | –
CCCC(=O)[O-].[Na+] [SB, sodium butyrate] | – | – | – | – | – | – | Acetylation of H3 and H4 was observed
